{"source": "patent US20230220331A1", "about": "“TEMPORARY TREATMENT MEDIUM, TREATMENT KIT, EMBRYOGENESIS ARREST INHIBITOR, EMBRYOGENESIS ARREST INHIBITORY METHOD, DEVELOPMENTAL ENGINEERING PRODUCT PREPARATION METHOD, TRANSPLANTATION METHOD, THERAPEUTIC METHOD, AND DEVELOPMENTAL ENGINEERING PRODUCT” (priority 2020, published 2023)", "key": {"[1]": {"test_system": "pronuclear stage embryos of F344 rat", "assay": "Flox rat knock-in by 2STEP electroporation with high concentration ssODN (Treatment Example 6)", "type": "cell-based", "conditions": "ssODN 800 ng/μL, 14 transfer pulses", "description": "1. At least 3 hours before TAKE, 5 drops of Y-27632-added KSOM AA medium (Y-27632 final concentration 10 μM, an example of the “temporary treatment medium” of this example) were placed on a 35 mm Petri dish and drops covered with paraffin oil.\n2. Pronuclear stage embryos were collected, placed in Y-27632-added KSOM AA medium, and cultured for about 30 minutes to 1 hour (temporary treatment).\n3. After that, the first TAKE was performed.\n4. After TAKE, the embryos were placed in Y-27632-added KSOM AA medium and cultured under 37° C., 5% CO2, and 5% O2 conditions for 30 minutes and more and up to 12 hours (temporary treatment).\n5. Then, they were placed in Y-27632-free KSOM AA medium (an example of the “normal medium” of this example), and cultured under 37° C., 5% CO2, and 5% O2 conditions until the second TAKE.\n6. The next day, the embryos that had become two cells were separated, and about 20 to 22 hours after egg collection, they were placed in Y-27632-added KSOM AA medium again and cultured for about 30 minutes to 1 hour (temporary treatment).\n7. After that, the second TAKE was performed.\n8. After the second TAKE, the embryos were placed in Y-27632-added KSOM AA medium and cultured for about 30 minutes to 1 hour (temporary treatment).\n9. Then, they were transferred to mR1ECM medium (an example of “normal medium” of this example). […]"}, "[2]": {"test_system": "thawed 2-cell stage embryos of heterologous inbred SPR2 mouse", "assay": "Individuals by embryo transfer after freeze-thaw and electroporation (Treatment Example 5)", "type": "cell-based, Mus spretus", "description": "(§1) 1. Up to 3 hours before TAKE, Y-27632-added mWM medium (Y-27632 final concentration 10 μM, an example of the “temporary treatment medium” of this example), Y-27632-free mWM medium (an example of “normal medium” of this example) were dropped into 35 mm Petri dishes by 5 drops, respectively, to prepare drops covered with paraffin oil.\n(§2) 2. Two-cell stage embryos were collected from the drops or thawed, placed in Y-27632-added mWM medium, and cultured for about 30 minutes to 1 hour (temporary treatment).\n(§3) 3. After that, TAKE was performed.\n(§4) 4. After TAKE, the embryos were placed in Y-27632-added mWM medium and cultured for about 30 minutes to 1 hour (temporary treatment). Then, the embryos were placed in Y-27632-free mWM medium and cultured at 37° C. under 5% CO2 and 5% O2 conditions until transplantation.\nNext, the effect of the temporary treatment medium of this example on the heterologous inbred SPR2 mouse, which cannot obtain the individual by embryo transfer after freeze-thaw and electroporation, was measured.\nIn the heterologous inbred SPR2 mouse, the thawed 2-cell stage embryos that were cultured in the temporary treatment medium of this example for the specific period before and after electroporation were used, […], and 7 individuals were able to be obtained. […]"}, "[3]": {"test_system": "immunodeficient mouse (nude) pronuclear stage embryos, BALB/c-nu", "assay": "Multi-gene knockout (BBOX1, IL2RG) in nude mouse embryos (Treatment Example 7)", "type": "cell-based", "description": "1. Up to 3 hours before TAKE, Y-27632-added mWM medium (Y-27632 final concentration 10 μM, an example of the “temporary treatment medium” of this example) and Y-27632-free mWM medium (an example of “normal medium” of this example) were dropped into 35 mm Petri dishes by 5 drops, respectively, to prepare the drops covered with paraffin oil.\n2. Pronuclear stage embryos were collected from the drops, placed in Y-27632-added mWM medium, and cultured for about 30 minutes to 1 hour (temporary treatment).\nas §3\n4. After TAKE, the embryos were placed in Y-27632-added mWM medium and cultured for about 30 minutes to 1 hour (temporary treatment).\n5. Then, the embryos were placed in Y-free mWM medium and cultured at 37° C. under 5% CO2 and (5% O2) conditions until the next day. If necessary, culture was continued or embryo transfer was performed in Y-27632-free mWM medium.\nIn this production example, a multi-gene KO mouse was prepared by using an immunodeficient mouse (nude, a nude mouse) embryo.\nSpecifically, a male of BALB/c-nu/nu and a female of BALB/c-nu/+ treated with ovarian hyperstimulation were crossed, and a pronuclear stage embryos were collected. The guide RNAs (crRNA: tracrRNA), which are two for the BBOX1 gene and two for the IL2RG gene, are electroporated at about 100 ng/μL per guide RNA, totaling about 400 ng/μL, are electroporated with 14 transfer pulses, and, before and after the electroporation, the embryos were cultured in the temporary treatment medium of this example."}, "[4]": {"test_system": "two-cell stage embryo of a heterologous inbred SPR2 mouse", "assay": "Heterologous Tyr knockout mouse production (Treatment Example 8)", "type": "cell-based, Mus spretus", "conditions": "SPR2, Tyr KO", "description": "as §1, §2, §3, §4\nBy using a two-cell stage embryo of a heterologous inbred SPR2 mouse, four guide RNAs (crRNA: tracrRNA) for the Tyr gene were used about 100 ng/μL per RNA, for a total of about 400 ng/μL, and it was electroporated once or twice. Before and after electroporation, the embryos were cultured in the temporary treatment medium of this example."}, "[5]": {"conditions": "of 4 surviving and 3 stillborn newborns analysed"}}}
{"smiles": "C[C@@H](N)[C@H]1CC[C@H](C(=O)Nc2ccncc2)CC1", "note": "[Y-27632, trans-4-[(1R)-1-Aminoethyl]-N-4-pyrid inylcyclohexanecarboxamide]", "values": [{"measurement": "samples developed to blastocysts (PCR AMPLIFICATION)", "setting": "[1]; F344, 2STEP, of 86 samples", "value": 67}, {"measurement": "Flox (proportion)", "setting": "[1]; F344 blastocysts, 2STEP", "value": "1/67"}, {"measurement": "individuals obtained", "setting": "[2]; SPR2 thawed 2-cell embryos, treated before and after electroporation, 17 2-cell embryos transplanted into the oviduct", "value": 7}, {"measurement": "individuals obtained", "setting": "[2]; SPR2 thawed, electroporated, 16 blastocysts transplanted into the uterus 3.5 days after plug", "value": 5}, {"measurement": "pups born", "setting": "[3]; BALB/c nude embryos, 4 guide RNAs about 400 ng/μL, 14 transfer pulses, 63 embryos transplanted", "value": 16}, {"measurement": "analysed newborns with mutations", "setting": "[3]; [5]", "value": 3}, {"measurement": "analysed newborns with mutations in 2 genes", "setting": "[3]; [5]", "value": 1}, {"measurement": "mosaics obtained", "setting": "[4]; electroporated once", "value": 3}, {"measurement": "individuals obtained", "setting": "[4]; electroporated once, 20 embryos transplanted", "value": 7}, {"measurement": "mosaics obtained", "setting": "[4]; electroporated twice", "value": 3}, {"measurement": "whites (homo or compound heterozygote) obtained", "setting": "[4]; electroporated twice", "value": 3}, {"measurement": "individuals obtained", "setting": "[4]; electroporated twice, 13 embryos transplanted", "value": 7}]}
